# Columns and labels:
# [1] = Behaviour in water (solubility, aggregation)
# COVID = conditions: references 1,2; cited from earlier work
# lung = conditions: aerosol delivery in animals; cited from earlier work
Compound,aggregation when dissolved in water [1],solubility in water [1],antiviral activity in vitro at a cellular level (COVID),anti-inflammatory effect on the lung (lung)
"CC(CCCNCCO)Nc1ccnc2cc(Cl)ccc12 (stereo not drawn) [DHCQ, N-desethylhydroxychloroquine]",do not aggregate,water-soluble,–,–
"CCN(CCO)CCCC(C)Nc1ccnc2cc(Cl)ccc12.O=S(=O)(O)O (stereo not drawn) [HCQ, 2-[[4-[(7-Chloro-4-quinolyl)amino]pentyl]ethylamino] ethanol sulfate (1:1)]",do not aggregate,water-soluble,highly potent antiviral drug,rapid and potent anti-inflammatory effect on the lung

# Source: patent EP3892275A1, “AEROSOLIZATION OF HCQ OR ITS METABOLITES FOR THE TREATMENT OF LUNG INFECTIONS” (INSERM (Institut National de la Santé et de la Recherche …, priority 2020, dated 2021)
